Data set [1] is described as follows: Solubility under the electrophysiological experimental conditions. As to conditions: for solubility: under experimental conditions, read-out: Highest soluble concentration (insoluble above). The data set is classed as physicochemical. As to the method:
To investigate this possibility, we added 100 μM 2b to the pipette solution (internal) and monitored IGABA, and we applied 2b to the outside of the cells and monitored the inhibitory effects (Figure 6). Experiments were performed using 2b, even though cLog P was less than 2, because 2c and 2d were insoluble under the conditions employed. […] Consistent with these findings, in recordings with 2b in the pipette, the amplitude of IGABA was the same 5 min (−1536 ± 379 pA) and 10 min (−1604 ± 409 pA; n = 4) after obtaining the whole-cell configuration. […] Thus, such an inhibition was as large as that observed without 2b inside the cells (Figure 6B).

Data set [2] concerns native GABAA receptors of guinea pig myenteric neurons. Briefly: Whole-cell recordings of membrane currents induced by GABA (IGABA) in cultured myenteric neurons. Type of data set: cell-based. As to conditions: for Percentage of inhibition of GABA-induced inward currents: 100 μM compound, 3 min treatment, mean ± SEM (n); for Effect of maximal antagonist concentration on IGABA: maximal concentrations used; for Voltage dependence of inhibitory effect (−60 mV vs +40 mV) / Time constant (t) of IGABA inhibition / Time to reach maximum inhibition: 100 μM DBTD; for Time constant (t) of IGABA inhibition: 3–180 s, Michaelis–Menten fit; for Reversibility of current inhibition on washing: within five minutes of washing; for Time to reach maximum inhibition: after initial exposure; for Amplitude of IGABA with compound inside the pipette: 2b 100 μM internal. From the text:
Guinea pigs (100–200 g; either male or female) were sacrificed by cervical dislocation and carotid exsanguination. These methods have been approved by the Animal Care Committee of the IPICYT and are in agreement with the published Guiding Principles in the Care and Use of Animals, approved by the American Physiological Society. A segment of ~10 cm of the jejunum was removed and placed in a modified Krebs solution (in mM: NaCl, 126; NaH2PO4, 1.2; MgCl2, 1.2; CaCl2, 2.5; KCl, 5; NaH2CO3, 25; glucose, 11. The sample was gassed under 95% O2 and 5% CO2) and opened longitudinally. A dissecting microscope was used to dissect the mucosa and submucosa layers prior to removing most of the circular muscle layer, leaving the myenteric plexus embedded in a longitudinal layer.
The cell isolation procedure has been described elsewhere. The myenteric preparation was dissociated by sequential treatment with two enzymatic solutions: the first solution contained papain (0.01 mL·mL^−1 activated with 0.4 mg·mL^−1L-cysteine), and the second solution contained collagenase (1 mg·mL^−1) and dispase (4 mg·mL^−1). The enzymes were removed by washing the neurons with L15 medium, and the neurons were placed on round coverslips coated with sterile rat-tail collagen. The culture medium was varied from minimal medium to essential medium 97.5% containing 2.5% guinea pig serum, 2 mM L-glutamine, 10 U·mL^−1 penicillin, 10 μg·mL^−1 streptomycin, and 15 mM glucose.
To reduce the effects of the membrane currents other than those mediated by the activation of LGIC, experiments were conducted in the presence of Cs^+ (a potassium channel blocker). […] The holding potential was −60 mV (unless otherwise stated), and the short-term (4–50 h) primary cultures of the myenteric neurons were used to prevent space-clamp problems due to neurite growth. Glass pipettes with a resistance of 2–5 MΩ were prepared as described previously. This low resistance and slight suction inside the pipette during the recordings maintained a low series resistance (around 6 MΩ).
All experiments were conducted using standard solutions with the following compositions (in mM); inside the pipette: CsCl, 160; EGTA, 10; HEPES, 5; NaCl, 10; ATPMg, 3 and GTP, 0.1; external solution: NaCl, 160; CaCl2, 2; glucose, 11; HEPES, 5 and CsCl, 3. The pH of all solutions was adjusted to 7.3–7.4 using either CsOH (pipette solution) or NaOH (external solution). The seal resistance in the whole-cell mode ranged from 1 to 10 GΩ. The whole-cell current data were recorded on a PC using the AxoScope software (Axon Instruments, Inc.) and were analyzed using the AXOGRAPH software (Molecular Devices, CA, USA). The recording chamber was superfused with an external solution at ~2 mL·min^−1. The solution around the neuron was quickly exchanged during recordings using an eight-tube device. Each tube was connected to a syringe (10 mL) containing either the control or the experimental solution. A control tube was positioned ~300 μm in front of the recorded neuron, and substances were applied externally by abruptly interchanging the tube for another tube containing the control solution plus the drug(s). […] Experimental substances were removed by returning to the control solution. External solutions were applied by gravity, and the height of the syringes was continuously adjusted to minimize changes in the flow rate. The experiments were performed at room temperature (24 ± 1 °C).
L15 medium, minimum essential medium, Hanks solution, penicillin-streptomycin, and L-glutamine were purchased from GIBCO (Life Technologies Corp., Carlsbad, CA, USA). Collagenase and papain were purchased from Worthington (Worthington Biochemical Corp., Lakewood, NJ, USA), and dispase was purchased from Roche (Indianapolis, IN, USA). […] Pentobarbital-Na was purchased from Lab Ttokkyo, S.A. (México, D.F., Mexico).

The mark [3] stands for this setting: DBTD 3–1,000 μM, 3 min before 300 μM GABA, fit assuming 100% inhibition, read-out: IC50 for inhibition of IGABA by DBTDs.

Read-outs that look alike come from different tables or passages of the source.

Take `O=S1(=O)Nc2ccccc2Nc2ccccc21` [2a, 6,11-Dihydrodibenzo[c,f][1,2,5]thiadiazepine-5,5-dioxide]: the “Solubility remark (potency could not be calculated)” value in data set [1] was “solubility problems”. For the same compound, in data set [2] (300 μM GABA), the “Percentage of inhibition of GABA-induced inward currents” value was 28.4 ± 1.4 (5) %.

As usually defined, the IC50 is the concentration needed to halve the response being measured. For picrotoxin [reference compound], the IC50 in data set [2] (bicuculline 0.1–100 μM, picrotoxin 3–1,000 μM, data not shown, read-out: IC50 for inhibition of IGABA by GABAA inhibitors) worked out at 6 ± 1 µM. Also, in data set [2], the “Effect of maximal antagonist concentration on IGABA” value is reported as “virtually abolished IGABA”.

With `CCOC(=O)c1ncn2c1CN(C)C(=O)c1cc(F)ccc1-2` [flumazenil, reference compound], the “Effect of flumazenil alone on holding current or IGABA” value in data set [2] (10 μM, 3 min, five neurons, data not shown) is reported as “did not induce changes in the holding current or IGABA”.

Usually melting point stands for the temperature, or range, at which the solid turns liquid. The compound `O=C(O)c1ccc2c(c1)Nc1ccccc1S(=O)(=O)N2` [2g, 6,11-Dihydrodibenzo[c,f][1,2,5]thiadiazepine-9-carboxylic acid 5,5-dioxide] yielded a melting point of 350 °C. Besides, the “Solubility remark (potency could not be calculated)” value in data set [1] is recorded as “solubility problems”. Further, the “Percentage of inhibition of GABA-induced inward currents” value in data set [2] (300 μM GABA) is 16.0 ± 2.4 (6) %.

With `CCOC(=O)c1ccc2c(c1)Nc1ccccc1S(=O)(=O)N2` [2f, Ethyl 6,11-dihydrodibenzo[c,f][1,2,5]thiadiazepine-9-carboxylate-5,5-dioxide], the “Solubility remark (potency could not be calculated)” value in data set [1] is given as “solubility problems”. Moreover, in data set [2] (300 μM GABA), the “Percentage of inhibition of GABA-induced inward currents” value is recorded as 47.1 ± 3.7 (7) %.

As for `NCCCC(=O)O` [GABA], the “Amplitude of IGABA among different neurons” value in data set [2] (response to 300 μM GABA, −60 mV) is on record as 0.1–6 nA.

Turning to `CN1CCc2cc3c(cc2[C@H]1[C@@H]1OC(=O)c2c1ccc1c2OCO1)OCO3` [bicuculline, reference compound], in data set [2], the “Effect of maximal antagonist concentration on IGABA” value is “virtually abolished IGABA”. Moreover, the IC50 in data set [2] (read-out: IC50 for inhibition of IGABA by GABAA inhibitors) came to 10 ± 2 µM.

`O=S1(=O)Nc2ccc(Br)cc2Nc2ccccc21` [2d, 9-Bromo-6,11-dihydrodibenzo[c,f][1,2,5]thiadiazepine-5,5-dioxide]: the solubility in data set [1] was not above 300 µM. In addition, in data set [2] (300 μM GABA), the “Voltage dependence of inhibitory effect (−60 mV vs +40 mV)” value was “identical”, the “Time constant (t) of IGABA inhibition” value came to 29.3 s and the “Percentage of inhibition of GABA-induced inward currents” value was 74.2 ± 2.4 (10) %. For the same compound, the “Calculated time required to reach maximum inhibition” value in data set [2] (100 μM, calculated from fit) was 17 min. In data set [2] (100 μM, from Michaelis–Menten fit), the Calculated maximum inhibition is reported as 87.0 ± 3.0%. For the same compound, in data set [2] (setting [3]), the 50% inhibitory concentration (IC50) is 47.6 ± 30.3 µM. Further, in data set [2], the “Reversibility of current inhibition on washing” value is reported as “fully reversed”.

Consider `O=S1(=O)Nc2ccc(Cl)cc2Nc2ccccc21` [2c, 9-Chloro-6,11-dihydrodibenzo[c,f][1,2,5]thiadiazepine-5,5-dioxide], for which the solubility in data set [1] is not above 300 µM. Also, in data set [2] (300 μM GABA), the “Voltage dependence of inhibitory effect (−60 mV vs +40 mV)” value is recorded as “identical”, the “Time constant (t) of IGABA inhibition” value worked out at 2.6 s and the “Percentage of inhibition of GABA-induced inward currents” value is listed as 74.2 ± 3.6 (6) %. For the same compound, in data set [2], the “Time to reach maximum inhibition” value was determined as 3 min and the “Reversibility of current inhibition on washing” value is given as “fully reversed”. The concentration for half-maximal inhibition (IC50) in data set [2] (setting [3]) is 50.4 ± 6.4 µM. Moreover, in data set [2] (simultaneous application, n = 4), the “Interaction with picrotoxin effect” value was “neither picrotoxin effect was modified by 2c nor the inhibitory effect of 2c was affected by picrotoxin”.

As to `O=S1(=O)Nc2ccc(F)cc2Nc2ccccc21` [2b, 9-Fluoro-6,11-dihydrodibenzo[c,f][1,2,5]thiadiazepine-5,5-dioxide], the “Decrease of the maximum of the GABA concentration–response curve” value in data set [2] (100 μM 2b) is ~ 50%. Moreover, the Type of antagonism result in data set [2] (100 μM 2b, GABA concentration-response curves) is “non-competitive”. In data set [2] (300 μM GABA), the “Voltage dependence of inhibitory effect (−60 mV vs +40 mV)” value is “identical”, the “Time constant (t) of IGABA inhibition” value was 4.9 s and the “Percentage of inhibition of GABA-induced inward currents” value is recorded as 50.8 ± 2.1 (12) %. Also, in data set [2], the “Time to reach maximum inhibition” value came out at 3 min and the “Reversibility of current inhibition on washing” value is given as “fully reversed”. Moreover, the “Amplitude of IGABA with compound inside the pipette” value in data set [2] (300 μM GABA, 2 to 3 min after whole cell configuration, n = 4) is −1408 ± 344 pA. In data set [2] (5 min after whole-cell configuration), the “Amplitude of IGABA with compound inside the pipette” value was −1536 ± 379 pA. Also, the “Amplitude of IGABA with compound inside the pipette” value in data set [2] (10 min after whole-cell configuration, n = 4) is recorded as −1604 ± 409 pA. Further, the IC50 in data set [2] (setting [3]) was determined as 104 ± 9.2 µM. Further, the “Maximum effect on GABA-activated currents” value in data set [2] (at 1 mM) is “complete inhibition”.

In the case of `COc1ccc2c(c1)Nc1ccccc1S(=O)(=O)N2` [2e, 9-Methoxy-6,11-dihydrodibenzo[c,f][1,2,5]thiadiazepine-5,5-dioxide], in data set [1], the “Solubility remark (potency could not be calculated)” value is “solubility problems”. Moreover, the “Percentage of inhibition of GABA-induced inward currents” value in data set [2] (300 μM GABA) is recorded as 43.7 ± 3.8 (3) %.

These data come from article PMC6270094, “Dibenzo[1,2,5]thiadiazepines Are Non-Competitive GABAA Receptor Antagonists” (Molecules, 2013).
